# Measurements from ChEMBL document CHEMBL5576042, “Fungal Depsidones Stimulate AKT-Dependent Glucose Uptake in 3T3-L1 Adipocytes” (J Nat Prod, 2024).
# Activity calls are given as the source filed them. No cut-off for these calls is given here.
# Key:
# [1] = system: 3T3-L1; experiment: Induction of glucose uptake in mouse 3T3-L1 cells assessed as increase in glucose uptake at 2.3 uM incubated for 16 hrs in presence of 2-[3H]-deoxyglucose by microbeta analysis; format: functional
# [2] = biological target: T1, Solute carrier family 2, facilitated glucose transporter member 4 (Mus musculus) (UniProt P14142); experiment: Induction of GLUT4 translocation in mouse 3T3-L1 cells membrane assessed as fold increase in Na+/K+ ATPase level by Western blot analysis; format: cell membranes
# T1 sequence (whole entry): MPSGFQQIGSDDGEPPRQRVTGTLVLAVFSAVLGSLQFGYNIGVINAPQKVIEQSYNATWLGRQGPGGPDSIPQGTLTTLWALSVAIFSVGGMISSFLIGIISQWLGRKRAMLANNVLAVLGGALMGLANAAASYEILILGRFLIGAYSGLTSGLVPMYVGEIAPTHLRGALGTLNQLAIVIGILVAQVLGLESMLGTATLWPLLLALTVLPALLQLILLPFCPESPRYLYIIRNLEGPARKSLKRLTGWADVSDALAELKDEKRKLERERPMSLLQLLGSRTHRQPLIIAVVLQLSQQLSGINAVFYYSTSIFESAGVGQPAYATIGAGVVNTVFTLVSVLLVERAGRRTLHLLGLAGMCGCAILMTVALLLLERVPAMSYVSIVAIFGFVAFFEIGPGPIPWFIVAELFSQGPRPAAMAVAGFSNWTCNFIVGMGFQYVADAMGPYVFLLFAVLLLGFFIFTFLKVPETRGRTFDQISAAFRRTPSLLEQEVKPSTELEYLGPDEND
# [3] = Effect on ACTbeta mRNA expression in mouse 3T3-L1 cells assessed as fold change at 11 uM incubated for 6 hrs by real time qPCR analysis; format: functional
# [4] = system: 3T3-L1; experiment: Induction of glucose uptake in mouse 3T3-L1 cells assessed as increase in glucose uptake at 11 uM incubated for 16 hrs in presence of 0.1 uM dorsomorphin; format: functional, cell-based
# [5] = system: 3T3-L1; experiment: Induction of glucose uptake in mouse 3T3-L1 cells assessed as increase in glucose uptake by measuring fold change at 11 uM incubated for 6 hrs in presence of 0.5 uM wortmannin; format: functional
# [6] = system: 3T3-L1; experiment: Induction of glucose uptake in insulin resistant-mouse 3T3-L1 cells assessed as fold increase in glucose uptake at 11 uM incubated for 16 hrs in presence of 2-[3H]-deoxyglucose and insulin; format: functional
# [7] = biological target: T2, Solute carrier family 2, facilitated glucose transporter member 1 (Mus musculus) (UniProt P17809); experiment: Induction of GLUT1 translocation in mouse 3T3-L1 cells Cytosol by Western blot analysis; format: subcellular
# T2 sequence (whole entry): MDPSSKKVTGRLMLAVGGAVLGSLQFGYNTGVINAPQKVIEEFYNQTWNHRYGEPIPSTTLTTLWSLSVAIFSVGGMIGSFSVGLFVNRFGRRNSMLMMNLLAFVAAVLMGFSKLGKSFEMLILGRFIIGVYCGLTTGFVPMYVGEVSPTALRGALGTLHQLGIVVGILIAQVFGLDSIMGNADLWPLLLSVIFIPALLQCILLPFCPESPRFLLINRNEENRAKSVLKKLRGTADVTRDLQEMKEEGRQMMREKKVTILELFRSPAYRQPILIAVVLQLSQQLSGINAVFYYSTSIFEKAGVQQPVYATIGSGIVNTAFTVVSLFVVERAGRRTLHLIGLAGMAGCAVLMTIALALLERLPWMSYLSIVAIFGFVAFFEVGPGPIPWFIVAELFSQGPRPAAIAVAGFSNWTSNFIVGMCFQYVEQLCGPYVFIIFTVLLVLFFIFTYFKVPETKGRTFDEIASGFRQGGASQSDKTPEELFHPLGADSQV
# [8] = system: 3T3-L1; experiment: Induction of glucose uptake in insulin-stimulated mouse 3T3-L1 cells assessed as increase in glucose uptake at 100 nM incubated for 16 hrs presence 2-[3H]-deoxyglucose by microbeta analysis; format: functional, cell-based
# [9] = biological target: T1, Solute carrier family 2, facilitated glucose transporter member 4 (Mus musculus); experiment: Induction of GLUT4 translocation in mouse 3T3-L1 cells membrane by Western blot analysis; format: cell membranes
# [10] = Effect on NONO mRNA expression in mouse 3T3-L1 cells assessed as fold change at 11 uM incubated for 6 hrs by real time qPCR analysis; format: functional
# [11] = system: 3T3-L1; experiment: Induction of glucose uptake in insulin-stimulated mouse 3T3-L1 cells assessed as increase in glucose uptake at 11 uM incubated for 16 hrs presence 2-[3H]-deoxyglucose by microbeta analysis; format: functional
# [12] = Upregulation of AMPK expression in mouse 3T3-L1 cells assessed as fold change at 11 uM measured at 6 hrs by Western blot analysis; format: functional
# [13] = biological target: T1, Solute carrier family 2, facilitated glucose transporter member 4 (Mus musculus); experiment: Induction of GLUT4 translocation in mouse 3T3-L1 cells Cytosol by Western blot analysis; format: subcellular
# [14] = system: 3T3-L1; experiment: Induction of glucose uptake in mouse 3T3-L1 cells assessed as increase in glucose uptake incubated for 16 hrs in presence 2-[3H]-deoxyglucose by microbeta analysis; format: functional, cell-based; settings: dose 2.8-11 µM
# [15] = system: 3T3-L1; experiment: Induction of glucose uptake in mouse 3T3-L1 cells assessed as increase in glucose uptake at 11 uM incubated for 6 hrs in presence of 0.5 uM wortmannin; format: functional
# [16] = system: 3T3-L1; experiment: Induction of AKT phosphorylation at ser473 residue in insulin-resistant mouse 3T3-L1 cells in presence of insulin; format: cell-based; settings: filed as activator
# [17] = system: 3T3-L1; experiment: Induction of glucose uptake in metformin-stimulated mouse 3T3-L1 cells assessed as increase in glucose uptake at 11 uM incubated for 16 hrs presence 2-[3H]-deoxyglucose by microbeta analysis; format: functional
# [18] = Upregulation of AMPK expression in mouse 3T3-L1 cells assessed as fold change at 11 uM measured at 1 hr by Western blot analysis; format: functional
# [19] = system: 3T3-L1; experiment: Induction of glucose uptake in mouse 3T3-L1 cells assessed as increase in glucose uptake at 11 uM incubated for 16 hrs in presence of 0.1 uM wortmannin; format: functional, cell-based
# [20] = system: 3T3-L1; experiment: Cytotoxicity against mouse 3T3-L1 cells assessed as reduction in cell viability at 45 to 68 uM incubated for 18 hrs; format: toxicity, cell-based; settings: 3t3-l1, 18 h, dose 45-68 µM
# [21] = biological target: T2, Solute carrier family 2, facilitated glucose transporter member 1 (Mus musculus); experiment: Induction of GLUT1 translocation in mouse 3T3-L1 cells membrane assessed as fold increase in Na+/K+ ATPase level by Western blot analysis; format: cell membranes
# [22] = system: 3T3-L1; experiment: Induction of AKT phosphorylation at ser473 residue in mouse 3T3-L1 cells assessed as fold change at 11 uM measured at 6 hrs by Western blot analysis; format: cell-based; settings: filed as activator
# [23] = system: 3T3-L1; experiment: Induction of glucose uptake in mouse 3T3-L1 cells assessed as increase in glucose uptake by measuring fold change at 11 uM incubated for 6 hrs in presence of 0.25 uM wortmannin; format: functional
# [24] = system: 3T3-L1; experiment: Induction of glucose uptake in mouse 3T3-L1 cells assessed as increase in glucose uptake at 11.27 uM in presence 2-[3H]-deoxyglucose by microbeta analysis; format: functional, cell-based; settings: time 3-16 hrs, TDE = time-dependent effect
# [25] = Effect on GLUT4 protein level in mouse 3T3-L1 cells assessed as fold change at 11 uM incubated for 16 hrs; format: functional
# [26] = system: 3T3-L1; experiment: Effect on GLUT4 mRNA expression in mouse 3T3-L1 cells at 11 uM incubated for 6 hrs by real time qPCR analysis; format: functional, cell-based
# [27] = system: 3T3-L1; experiment: Induction of AKT phosphorylation at ser473 residue in mouse 3T3-L1 cells measured up to 6 hrs by Western blot analysis; format: cell-based; settings: filed as activator
# [28] = system: 3T3-L1; experiment: Induction of AKT phosphorylation at ser473 residue in insulin-resistant mouse 3T3-L1 cells assessed as fold change in presence of insulin; format: cell-based; settings: filed as activator
# [29] = system: 3T3-L1; experiment: Induction of AKT phosphorylation at ser473 residue in mouse 3T3-L1 cells assessed as fold change at 11 uM measured at 1 hr by Western blot analysis; format: cell-based; settings: filed as activator
# [30] = system: 3T3-L1; experiment: Induction of glucose uptake in mouse 3T3-L1 cells assessed as increase in glucose uptake by measuring fold change at 11 uM incubated for 6 hrs in presence of 0.1 uM wortmannin; format: functional
# [31] = system: 3T3-L1; experiment: Induction of glucose uptake in mouse 3T3-L1 cells assessed as increase in glucose uptake at 11 uM incubated for 16 hrs in presence of wortmannin; format: functional, cell-based
# [32] = system: 3T3-L1; experiment: Induction of glucose uptake in insulin resistant-mouse 3T3-L1 cells assessed as fold increase in glucose uptake at 11 uM incubated for 16 hrs in presence of 2-[3H]-deoxyglucose; format: functional
# [33] = system: 3T3-L1; experiment: Induction of glucose uptake in mouse 3T3-L1 cells assessed as increase in glucose uptake at 3.1 uM incubated for 16 hrs in presence of 2-[3H]-deoxyglucose by microbeta analysis; format: functional
structure (smiles),measurement,setting,value
C/C=C(\C)c1c(Cl)c(OC)c(C)c2c1Oc1c(Cl)c(O)c(Cl)c(C)c1C(=O)O2,Activity,[1],141%
same,fold change (FC),[2],1.7
same,fold change (FC),[3],1.92
same,Activity,[4],inactive
same,fold change (FC),[5],1.2
same,fold change (FC),[6],2.7
same,Activity,[7],Active
same,Activity,[8],Active
same,Activity,[9],Active
same,fold change (FC),[10],2.07
same,Activity,[11],276%
same,fold change (FC),[12],3.8
same,Activity,[13],Active
same,Activity,[14],Dose-Dependent Effect
same,Activity,[15],20%
same,Activity,[16],Active
same,Activity,[17],252%
same,fold change (FC),[18],3.7
same,Activity,[19],inactive
same,Activity,[20],Non-Toxic
same,fold change (FC),[21],1.6
same,fold change (FC),[22],19
same,fold change (FC),[23],1.4
same,Activity,[24],Tde
same,fold change (FC),[25],1.67
same,Activity,[26],Active
same,Activity,[27],Active
same,fold change (FC),[28],2.1
same,fold change (FC),[29],2.4
same,fold change (FC),[30],1.5
same,Activity,[31],inactive
same,fold change (FC),[32],2.4
C/C=C(\C)c1c(Cl)c(O)c(C)c2c1Oc1c(Cl)c(O)c(Cl)c(C)c1C(=O)O2,Activity,[1],121%
C/C=C(\C)c1cc(O)c(C)c2c1Oc1cc(O)cc(C)c1C(=O)O2,Activity,[33],124%
